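In this assay, cells in 96-well plates receive the compound at five concentrations for 48 hours. Endpoints are linearly interpolated between the surrounding concentrations. GI50 is the concentration that inhibits growth by half.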 The source made the active and inactive calls. Rule as the data show it: active = GI50 up to about 1.1 µM and inactive = higher.
How the values were obtained:
Test in all cases: growth of human tumour cells (NCI), 48 h
HOP-92 = system: HOP-92
M14 = system: M14
SK-MEL-28 = system: SK-MEL-28
MDA-MB-231 = system: MDA-MB-231
SW-620 = system: SW-620
786-0 = system: 786-0
HL-60 = system: HL-60
PC-3 = system: PC-3
SR = system: SR
HCC 2998 = system: HCC 2998
NCI-H522 = system: NCI-H522
KM12 = system: KM12
NCI-H226 = system: NCI-H226
T47D = system: T47D
RPMI-8226 = system: RPMI-8226
NCI-H23 = system: NCI-H23
COLO 205 = system: COLO 205
DU-145 = system: DU-145
SF-295 = system: SF-295
OVCAR-4 = system: OVCAR-4

| Compound | GI50 (HOP-92) | GI50 (M14) | GI50 (SK-MEL-28) | GI50 (MDA-MB-231) | GI50 (SW-620) | GI50 (786-0) | GI50 (HL-60) | GI50 (PC-3) | GI50 (SR) | GI50 (HCC 2998) | GI50 (NCI-H522) | GI50 (KM12) | GI50 (NCI-H226) | GI50 (T47D) | GI50 (RPMI-8226) | GI50 (NCI-H23) | GI50 (COLO 205) | GI50 (DU-145) | GI50 (SF-295) | GI50 (OVCAR-4) |
| --- | --- | --- | --- | --- | --- | --- | --- | --- | --- | --- | --- | --- | --- | --- | --- | --- | --- | --- | --- | --- |
| c1cc2ccc3cc4ncccc4c4ccc(c1)c2c34 | 17.4 µM (inactive) | 71.6 µM (inactive) | 43.1 µM (inactive) | 20.8 µM (inactive) | 17.5 µM (inactive) | 18.8 µM (inactive) | 33.2 µM (inactive) | 33 µM (inactive) | < 0.01 µM (active) | 25.6 µM (inactive) | 16.7 µM (inactive) | 10.5 µM (inactive) | 17.5 µM (inactive) | 3.36 µM (inactive) | 10.1 µM (inactive) | 27.5 µM (inactive) | 9.82 µM (inactive) | 57.4 µM (inactive) | 17.1 µM (inactive) |  |
| CC1(C)C(=O)N(O)C(C)(C)N1O | > 10 µM (inactive) | > 10 µM (inactive) | > 10 µM (inactive) | > 10 µM (inactive) | > 10 µM (inactive) | > 10 µM (inactive) | > 10 µM (inactive) | > 10 µM (inactive) | > 10 µM (inactive) | > 10 µM (inactive) | > 10 µM (inactive) | > 10 µM (inactive) | > 10 µM (inactive) | > 10 µM (inactive) | > 10 µM (inactive) | > 10 µM (inactive) | > 10 µM (inactive) | > 10 µM (inactive) | > 10 µM (inactive) | > 10 µM (inactive) |
| CC(=O)Oc1ccc2c(c1)c1c(OC(C)=O)c3ccccc3c(OC(C)=O)c1n2Cc1cccc(C)c1 | 1.5 µM (inactive) | 30.3 µM (inactive) | > 100 µM (inactive) | 31.1 µM (inactive) |  | 36.2 µM (inactive) | 42.4 µM (inactive) | 52.4 µM (inactive) | 24.3 µM (inactive) | 22.8 µM (inactive) | 19.6 µM (inactive) | 28.4 µM (inactive) | > 100 µM (inactive) | 21.8 µM (inactive) | 20.5 µM (inactive) | 38.7 µM (inactive) | 60.5 µM (inactive) | > 100 µM (inactive) | 19.5 µM (inactive) | 33.3 µM (inactive) |
| O=C(OCC1OC2OC(c3ccccc3)(n3ccc4c([N+](=O)[O-])ccnc43)OC2C1OC(=O)c1ccccc1)c1ccccc1 (centres undefined) | > 100 µM (inactive) | > 100 µM (inactive) | > 100 µM (inactive) | > 100 µM (inactive) | > 100 µM (inactive) | > 100 µM (inactive) | > 100 µM (inactive) | > 100 µM (inactive) | > 100 µM (inactive) | > 100 µM (inactive) |  | > 100 µM (inactive) | > 100 µM (inactive) | 35 µM (inactive) | > 100 µM (inactive) | > 100 µM (inactive) |  | > 100 µM (inactive) | > 100 µM (inactive) | > 100 µM (inactive) |
| COc1cc(C2c3cc4c(cc3OC3(OC)COC(=O)C23)OCO4)cc(OC)c1OC (centres undefined) | 3.22 µM (inactive) | 0.272 µM (active) | 0.4 µM (active) | 0.29 µM (active) | 0.286 µM (active) | 0.353 µM (active) | 0.263 µM (active) | 0.285 µM (active) | 0.272 µM (active) | 0.325 µM (active) | 0.18 µM (active) | 0.129 µM (active) | 0.649 µM (active) | > 100 µM (inactive) | 0.284 µM (active) | 0.389 µM (active) | 0.251 µM (active) | 0.395 µM (active) | 0.173 µM (active) | 4.85 µM (inactive) |
| COC(=O)c1c(O)ccc2c1c1cc3ccccc3c(O)c1n2Cc1ccccc1Cl | 16.9 µM (inactive) | 23.4 µM (inactive) | 14.5 µM (inactive) | 32.3 µM (inactive) |  | 22.3 µM (inactive) | 32.8 µM (inactive) | 30 µM (inactive) | 25.4 µM (inactive) | 20 µM (inactive) | 8.26 µM (inactive) | 19.3 µM (inactive) | 31.8 µM (inactive) | 12.2 µM (inactive) | 20.4 µM (inactive) | 18.4 µM (inactive) | 16.8 µM (inactive) | 31.3 µM (inactive) | 18.8 µM (inactive) | 11.6 µM (inactive) |
| COc1ccc(/C=C/C(=O)Oc2ccccc2OC)cc1 | > 48.2 µM (inactive) | 30.6 µM (inactive) | 73.5 µM (inactive) | 6.52 µM (inactive) | 21.5 µM (inactive) | 14 µM (inactive) | 6.98 µM (inactive) | 44.4 µM (inactive) | 6.73 µM (inactive) | 16.6 µM (inactive) | 20.3 µM (inactive) | 9.04 µM (inactive) | > 96.6 µM (inactive) | 31.5 µM (inactive) | 1.95 µM (inactive) | 33 µM (inactive) | 7.26 µM (inactive) | > 61.8 µM (inactive) | 3.21 µM (inactive) | 9.59 µM (inactive) |
| O=C(Nc1cc2cc([N+](=O)[O-])ccc2oc1=O)c1cccs1 | 37.6 µM (inactive) | 58.7 µM (inactive) | 58.9 µM (inactive) | 34.9 µM (inactive) | 49.9 µM (inactive) | 89.5 µM (inactive) | 16.7 µM (inactive) | 37.8 µM (inactive) | 35 µM (inactive) | 48.3 µM (inactive) | 24.5 µM (inactive) | 24.5 µM (inactive) | 44 µM (inactive) | 38.5 µM (inactive) | 34 µM (inactive) | > 10 µM (inactive) | 25.2 µM (inactive) | > 100 µM (inactive) | 54.2 µM (inactive) | 43.6 µM (inactive) |
| CCCC/C=C1/CCC(CN(C)C)C1=O (centres undefined) | 2.07 µM (inactive) | 1.71 µM (inactive) | 1.92 µM (inactive) | 2.82 µM (inactive) | 1.14 µM (inactive) | 1.55 µM (inactive) | 0.885 µM (active) | 14.1 µM (inactive) | 0.456 µM (active) | 1.56 µM (inactive) | 0.656 µM (active) | 0.673 µM (active) | 11.1 µM (inactive) | 1.31 µM (inactive) | 0.0968 µM (active) | 3.41 µM (inactive) | 1.42 µM (inactive) | 15.6 µM (inactive) | 6.71 µM (inactive) | 1.92 µM (inactive) |
| O=C1CC(NCc2ccccc2)c2c(Cl)sc(Cl)c21 (centres undefined) | 34.8 µM (inactive) | 21.8 µM (inactive) | 28.1 µM (inactive) | 27.1 µM (inactive) | 17.7 µM (inactive) | 17.1 µM (inactive) | 17.2 µM (inactive) | 17.3 µM (inactive) | 3.2 µM (inactive) | 17.4 µM (inactive) | 6.05 µM (inactive) | 29.9 µM (inactive) | 25.9 µM (inactive) | 73.1 µM (inactive) | 2.26 µM (inactive) | 17.4 µM (inactive) | 21.6 µM (inactive) | 35.8 µM (inactive) | 38.7 µM (inactive) | 28.4 µM (inactive) |
| O=C1/C(=C/c2ccc(Cl)cc2)N=C(c2ccccc2)N1C1Nc2cc3c(cc2S1)NC(N1C(=O)/C(=C/c2ccc(Cl)cc2)N=C1c1ccccc1)S3 (centres undefined) | 48.6 µM (inactive) | > 100 µM (inactive) | > 100 µM (inactive) | > 100 µM (inactive) | 22 µM (inactive) | 87.3 µM (inactive) | 0.336 µM (active) | 40.7 µM (inactive) | 6.18 µM (inactive) | 61.1 µM (inactive) | 18.7 µM (inactive) | 54 µM (inactive) | > 100 µM (inactive) | 28.8 µM (inactive) | 23.8 µM (inactive) | > 100 µM (inactive) |  | 46.3 µM (inactive) | 73.5 µM (inactive) | 59.2 µM (inactive) |
| Clc1cccc2[nH]ncc12 | > 100 µM (inactive) |  | > 100 µM (inactive) | > 100 µM (inactive) | > 100 µM (inactive) | > 100 µM (inactive) | > 100 µM (inactive) | > 100 µM (inactive) | 30.6 µM (inactive) | > 100 µM (inactive) | 26.5 µM (inactive) | > 100 µM (inactive) | > 100 µM (inactive) | 16.6 µM (inactive) | > 100 µM (inactive) |  | 74.6 µM (inactive) | > 100 µM (inactive) | > 100 µM (inactive) | > 100 µM (inactive) |
| NC(=O)N/N=C/c1ccccc1O | > 100 µM (inactive) | > 100 µM (inactive) | > 100 µM (inactive) | > 100 µM (inactive) | > 100 µM (inactive) | > 100 µM (inactive) | 53.1 µM (inactive) | > 100 µM (inactive) | > 100 µM (inactive) | > 100 µM (inactive) |  | > 100 µM (inactive) | > 100 µM (inactive) | > 100 µM (inactive) | > 100 µM (inactive) | > 100 µM (inactive) | > 100 µM (inactive) | > 100 µM (inactive) | > 100 µM (inactive) | > 100 µM (inactive) |
| CCOP(C)(=O)C(N)Cc1ccc(OC)c(OC)c1 (centres undefined) | > 100 µM (inactive) | > 100 µM (inactive) | > 100 µM (inactive) | > 100 µM (inactive) | > 100 µM (inactive) | > 100 µM (inactive) | > 100 µM (inactive) | > 100 µM (inactive) | > 100 µM (inactive) | > 100 µM (inactive) | > 100 µM (inactive) |  | > 100 µM (inactive) | > 100 µM (inactive) | > 100 µM (inactive) | > 100 µM (inactive) | > 100 µM (inactive) | > 100 µM (inactive) | > 100 µM (inactive) | > 100 µM (inactive) |
| O=c1n(CCO)nc2n1CCCN2 | > 100 µM (inactive) | > 100 µM (inactive) | > 100 µM (inactive) | > 100 µM (inactive) | > 100 µM (inactive) | > 100 µM (inactive) | > 100 µM (inactive) | > 100 µM (inactive) | > 100 µM (inactive) | > 100 µM (inactive) |  | > 100 µM (inactive) | > 100 µM (inactive) | > 100 µM (inactive) | > 100 µM (inactive) | > 100 µM (inactive) | > 100 µM (inactive) | > 100 µM (inactive) | > 100 µM (inactive) | > 100 µM (inactive) |
